Results: ChEMBL document CHEMBL1152969, “Verbesinosides A-F, 15,27-cyclooleanane saponins from the American native plant Verbesina virginica” (J Nat Prod, 2009)
Activity calls are given as the source filed them.

Experiments:
Format in all cases: functional, organism-based
[1] = system: Cryptococcus neoformans; experiment: Antimicrobial activity against Cryptococcus neoformans at 20 ug/mL
[2] = system: Pseudomonas aeruginosa; experiment: Antimicrobial activity against Pseudomonas aeruginosa at 20 ug/mL
[3] = system: Staphylococcus aureus; experiment: Antimicrobial activity against Staphylococcus aureus at 20 ug/mL
[4] = system: Candida albicans; experiment: Antimicrobial activity against Candida albicans at 20 ug/mL
[5] = system: Staphylococcus aureus; experiment: Antimicrobial activity against methicillin-resistant Staphylococcus aureus at 20 ug/mL
[6] = system: Aspergillus fumigatus; experiment: Antimicrobial activity against Aspergillus fumigatus at 20 ug/mL
[7] = system: Mycobacterium intracellulare; experiment: Antimicrobial activity against Mycobacterium intracellular at 20 ug/mL

Measured: Activity

COc1cc(C(=O)O[C@H]2C[C@]3(C(=O)O)C[C@@H]4C[C@]45C(=CCC4[C@@]6(C)CC[C@H](O[C@@H]7O[C@H](CO)[C@@H](O)[C@H](O)[C@H]7O[C@@H]7OC[C@@H](O[C@@H]8OC[C@@H](O)[C@H](O)[C@H]8O)[C@H](O)[C@H]7O)C(C)(C)[C@@H]6CC[C@]45C)[C@@H]3CC2(C)C)cc(OC)c1OC (some centres not stated)
inactive: all assays above
